pKd: −log10 of the molar value.
What was measured:
CjapOBP1 [1] = molecular target: T1, CjapOBP1 (Cybister japonicus, UniProt A0A1Q1N696); assay: Competitive fluorescence binding assay with 1-NPN as reporter; conditions: protein 5 μM, 1-NPN 2 μM, competitor up to 16 μM
T1 sequence (A0A1Q1N696 17-136): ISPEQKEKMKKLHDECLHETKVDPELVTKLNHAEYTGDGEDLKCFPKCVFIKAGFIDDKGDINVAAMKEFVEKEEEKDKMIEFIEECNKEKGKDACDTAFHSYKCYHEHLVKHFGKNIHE
From the text: (§1) To characterize the ligand-binding properties of the two OBPs, we performed fluorescence binding assays with several chemicals having different structures using N-phenyl-1-naphthylamine (1-NPN) as a fluorescent reporter. In the absence of any information about potential semiochemicals for this insect, as well as for related species, we selected some common plant volatiles, such as citral, coniferyl aldehyde, eugenol and 2-isobutyl-3-mthoxypyrazine, and structurally similar compounds. 1-NPN binds CjapOBP1 and CjapOBP2 with dissociation constants of 3.3 and 2.1 μM respectively (Fig. 5A). Among the ligands tested, we identified a single good ligand for each protein, citral for CjapOBP1 and coniferyl aldehyde for CjapOBP2 (Fig. 5B,C).
(§2) Figure 5 Affinity of CjapOBPs to candidate chemical ligands. (A) Both CjapOBP1 and CjapOBP2 bind the fluorescent probe 1-NPN, with dissociation constants of 3.3 μM and 2.1 μM, respectively. (B) Competitive binding curves of selected ligands to the two CjapOBPs. Mixtures of proteins (5 μM) and 1-NPN (2 μM) were titrated with 1mM solutions of the ligands in methanol. […] (C) The chemical structures of the chemicals applied.
(§3) To measure the affinity of the fluorescent ligand N-phenyl-1-naphthylamine (1-NPN), a 2 μM solution of the protein in 50 mM Tris-HCl (pH 7.4) was titrated with aliquots of 1 mM 1-NPN in methanol to final concentrations of 1–16 μM. The probe was excited at 337 nm, and emission spectra were recorded between 380 and 450 nm. The affinity of other ligands was measured in competitive binding assays, using the protein and the fluorescent reporter 1-NPN at the concentration of 5 μM and 2 μM respectively, while increasing the final concentration of each competitor up to 16 μM. Dissociation constants for 1-NPN were evaluated from Scatchard plots of the binding data, and other ligands were calculated from the corresponding IC50 values, using the equation: KD = [IC50]/1+[1-NPN]/K1-NPN, [1-NPN] being the free concentration of 1-NPN and K1-NPN being the dissociation constant of the complex protein/1-NPN.

CjapOBP2 [2] = molecular target: T2, CjapOBP2 (Cybister japonicus, UniProt A0A1Q1N694); assay: as above; conditions: protein 5 μM, 1-NPN 2 μM, competitor up to 16 μM
From the text: as §1, §2, §3

CjapOBP1 [3] = molecular target: T1, CjapOBP1; assay: Fluorescence binding assay, direct titration with 1-NPN; conditions: recombinant CjapOBP1, 2 μM protein in 50 mM Tris-HCl pH 7.4, titrated with 1-NPN 1–16 μM; Scatchard plot; read-out: dissociation constant
From the text: as §1, §2
(§4) To measure the affinity of the fluorescent ligand N-phenyl-1-naphthylamine (1-NPN), a 2 μM solution of the protein in 50 mM Tris-HCl (pH 7.4) was titrated with aliquots of 1 mM 1-NPN in methanol to final concentrations of 1–16 μM. […]

CjapOBP2 [4] = molecular target: T2, CjapOBP2; assay: as above; conditions: recombinant CjapOBP2, 2 μM protein in 50 mM Tris-HCl pH 7.4, titrated with 1-NPN 1–16 μM; Scatchard plot; read-out: dissociation constant
From the text: as §1, §2, §4

T2 sequence (A0A1Q1N694 entry or part of it): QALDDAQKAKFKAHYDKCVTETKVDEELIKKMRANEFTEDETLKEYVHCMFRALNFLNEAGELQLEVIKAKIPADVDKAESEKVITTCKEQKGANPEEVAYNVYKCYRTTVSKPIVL

| SMILES | binding to CjapOBP2 (displacement of 1-NPN) (CjapOBP2 [2]) | other results |
| --- | --- | --- |
| CC(C)=CCCC(C)=CC=O (mixture of isomers) [citral] | – | binding to CjapOBP1 (displacement of 1-NPN) (CjapOBP1 [1]): good ligand |
| C=CCc1ccc(O)c(OC)c1 [eugenol] | did not show appreciable binding | – |
| CO/C(C=O)=C\c1ccccc1 [α-methoxycinnamaldehyde] | did not show appreciable binding | – |
| c1ccc(Nc2cccc3ccccc23)cc1 [1-NPN, N-phenyl-1-naphthylamine] | – | pKd (CjapOBP1 [3]): 5.48; pKd (CjapOBP2 [4]): 5.68 |
| COc1cc(CCC(=O)O)ccc1O [dihydroferulic acid] | did not show appreciable binding | – |
| COc1cc(/C=C/C=O)ccc1O [coniferyl aldehyde] | good ligand | – |
